Reference: patent US20160045505A1, “COMPOUNDS AND COMPOSITIONS FOR THE TREATMENT OF PARASITIC DISEASES” (NOVARTIS AG, priority 2013, published 2016)
Read-outs that look alike come from different tables or passages of the source.

Experiments:
[1] = system: L. donovani HU3 strain in mouse peritoneal macrophages; experiment: Assay for proliferation of Leishmania parasites in infected mouse peritoneal macrophages (SybrGreen staining, high-content imaging, 5 days); type: cell-based, Leishmania donovani; settings: Leishmania donovani, Peritoneal macrophage, L. donovani in mouse peritoneal macrophages, read-out: L. donovani Macrophage EC50
[2] = system: Leishmania donovani axenic amastigote parasites; experiment: Leishmania donovani axenic amastigote proliferation assay (Cell TiterGlo luminescence, 2 day incubation); type: cell-based; settings: Leishmania donovani, read-out: L. donovani amastigotes EC50
[3] = system: Trypanosoma brucei Lister 427 strain, bloodstream form; experiment: Assay for proliferation of kinetoplastid parasite Trypanosoma brucei (Cell Titer Glo, 48 hours); type: cell-based; settings: Trypanosoma brucei, T. brucei Lister 427 bloodstream form, read-out: T. brucei EC50
Outline: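 Bloodstream-form T. brucei Lister 427 in HMI-9 medium was exposed to compound (DMSO vehicle) for 48 hours at 37° C, 5% CO2. Parasite growth was read as ATP by CellTiter-Glo luminescence, with EC50 calculated from percent inhibition.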

[4] = system: Trypanosoma cruzi amastigotes (Tulahuen strain expressing Lac-Z) cultured in 3T3 fibroblast cells; experiment: microbe, parasite or virus in culture; type: cell-based; settings: Trypanosoma cruzi, TULAHUEN, Fibroblast, T. cruzi amastigotes in 3T3 fibroblast cells, read-out: T cruzi EC50
[5] = axenic amastigotes, inhibition of proliferation

| SMILES | EC50 ([1]; inhibition of proliferation) [µM] | EC50 [2, 5] [µM] | EC50 ([3]; inhibition of proliferation) [µM] | EC50 ([4]; inhibition of proliferation) [µM] | EC50 [1] [µM] | EC50 ([2]; L. donovani axenic amastigotes) [µM] | EC50 [3] [µM] | EC50 [4] [µM] |
| --- | --- | --- | --- | --- | --- | --- | --- | --- |
| Cc1nc(C(=O)Nc2cnc3nc(-c4cc(NC(=O)c5oc(C)nc5C)ccc4F)cn3c2)c(C)o1 [Compound 162] | 0.54 | 0.065 | 0.052 | 0.127 |  |  |  |  |
| CN(C)c1cnc2nc(-c3cc(NC(=O)N4CC[C@@H](F)C4)ccc3F)cn2c1 [Compound 468] |  |  |  |  | 0.23 | 0.087 | 0.015 | 0.146 |
| Cc1nc(C)c(C(=O)Nc2ccc(F)c(-c3cn4cc(NC(=O)OC5(C)CC5)cnc4n3)c2)o1 [Compound 312] | 0.139 | 0.12 | 0.054 | 0.441 |  |  |  |  |
| CC(C)OC(=O)N(C)c1cnc2nc(-c3cc(NC(=O)c4ccc(Cl)o4)ccc3F)cn2c1 [Compound 550, isopropyl (2-(5-(5-chlorofuran-2-carboxamido)-2-fluorophenyl)imidazo[1,2-a]pyrimidin-6-yl)(methyl)carbamate] |  |  |  |  | 0.516 | 0.176 | 0.078 | 0.042 |
| Cc1nc(C)c(C(=O)Nc2ccc(F)c(-c3cn4cc(C5=CCCCO5)cnc4n3)c2)o1 [Compound 373] |  |  |  |  | 0.134 | 0.115 | 0.044 | 0.084 |
| Cc1nc(C)c(C(=O)Nc2ccc(F)c(-c3cn4cc(-c5ccn(C)n5)cnc4n3)c2)o1 [Compound 363] | 0.136 | 0.077 | 0.058 | 0.045 |  |  |  |  |
| Cc1nc(C)c(C(=O)Nc2ccc(F)c(-c3cn4cc(NC(=O)C5CCOC(C)(C)C5)cnc4n3)c2)o1 (stereo not drawn) [Compound 159] | 10.1 | 2.89 | 1.47 | 9.95 |  |  |  |  |
| Cc1nc(C)c(C(=O)Nc2ccc(F)c(-c3cn4cc(NC5CC5)cnc4n3)c2)o1 [Compound 494] |  |  |  |  | 4.06 | 3.52 | 1.01 | 1.3 |
| Cc1nc(C)c(C(=O)Nc2ccc(F)c(-c3cn4cc(NC(=O)N5CCNC5=O)cnc4n3)c2)o1 [Compound 224] | > 50 | 1.41 | 0.757 | > 20 |  |  |  |  |
| CC(C)c1cnc2nc(-c3cc(NC(=O)N4CC[C@@H](F)C4)ccc3F)cn2c1 [Compound 418] |  |  |  |  | 0.071 | 0.029 | 0.008 | 0.015 |
| Cc1nc(C)c(C(=O)Nc2ccc(F)c(-c3cn4cc(-c5cccc(N6CCN(C(=O)OC(C)(C)C)CC6)n5)cnc4n3)c2)o1 [Compound 368] | 0.905 | 0.463 | 0.498 | 0.135 |  |  |  |  |
| CC(C)Nc1cnc2nc(-c3cc(NC(=O)N4CC[C@@H](F)C4)ccc3F)cn2c1 [Compound 461] |  |  |  |  | 0.185 | 0.234 | 0.055 | 0.232 |
| Cc1nc(C)c(C(=O)Nc2cccc(-c3cn4cc(C5=CCOCC5)cnc4n3)c2)o1 [Compound 335] | 0.521 | 0.178 | 0.114 | 0.407 |  |  |  |  |
| CC(C)OC(=O)Nc1cnc2nc(-c3cc(Nc4ncccc4OC(F)(F)F)ccc3F)cn2c1 [Compound 487] |  |  |  |  | > 50 | > 25 | > 50 | > 16.6 |
| CC(C)OC(=O)Nc1cnc2nc(-c3cc(NC(=O)c4ccc(S(C)(=O)=O)s4)ccc3F)cn2c1 [Compound 109] | 28.2 | > 25 | > 50 | > 20 |  |  |  |  |
| CC(C)c1cnc2nc(-c3cc(NC(=O)N4CC(F)C4)ccc3F)cn2c1 [Compound 415] |  |  |  |  | 0.114 | 0.028 | 0.012 | 0.044 |
| Cc1nc(C)c(C(=O)Nc2ccc(F)c(-c3cn4cc(NC(=O)C5(C)COC5)cnc4n3)c2)o1 [Compound 192] | > 25.1 | 3.24 | 1.14 | > 20 |  |  |  |  |
| CC(C)OC(=O)Nc1cnc2nc(-c3cc(NC(=O)c4cncs4)ccc3F)cn2c1 [Compound 90] | 7.58 | 0.894 | 0.61 | 1.46 |  |  |  |  |
